# Experimental data: patent US20250387348A1, “NEPHROPROTECTIVE USEFUL AGENT” (WATANABE OYSTER LABORATORY, CO., LTD., priority 2022, published 2025)
# Assays:
# [1] = tested on: human renal proximal tubular cells HK-2; experiment: LDH cytotoxicity test under BSO oxidative stress; format: cell-based; conditions: 48 hours
# Method: (§1) Human renal proximal tubular cells (HK-2) were subcultured using Dulbecco's Modified Eagle's Medium (DMEM, NACALAI TESQUE, INC.) containing 10% fetal bovine serum and 1% penicillin-streptmycin in a 5% CO2 incubator at 37° C.
# (§2) In order to confirm the cytoprotective action of DHMBA on human renal proximal tubular cells HK-2 against oxidative stress, an oxidative stress inducer buthionine sulfoximine (BSO) was used to assess the toxicity and viability of the cells.
# (§3) Specifically, the HK-2 cells were seeded into a 96-well plate to be 3.0×10^3 cells/well and cultured for 24 hours.
# (§4) Next, BSO and DHMBA were added in an amount of 150 μL/well to have a final concentration of BSO of 100 μM and a final concentration of DHMBA of 1 μM to 500 μM. […] After the plate was allowed to stand for 30 minutes at room temperature, the absorbance at 490 nm was measured using a plate reader (Wallac 1420 ARVO Mx plate reader, PerkinElmer) to measure the cytotoxicity. In addition, a CCK-8 reagent (DOJINDO LABORATORIES) was added in an amount of 10 μL/well to the plate where the cells had been cultured, and after two hours of culture at 37° C., the absorbance at 450 nm was measured using a plate reader (Wallac 1420 ARVO Mx plate reader) to assess the viability of the cells. The toxicity and viability of the cells were calculated from the absorbance value relative to the control (0 μg/mL) (n=5 to 6 for each group).
# [2] = tested on: human renal proximal tubular cells HK-2; experiment: CCK-8 cell viability test under BSO oxidative stress; format: cell-based; conditions: 48 hours
# Method: as §1, §2, §3, §4
# [3] = tested on: intracellular ROS in HK-2 cells; experiment: Intracellular ROS production level (DCFDA staining); format: cell-based, human; conditions: 24 hours
# Method: The production level of intracellular ROS was measured to assess changes in intracellular ROS by DHMBA under oxidative stress stimulation.
# The HK-2 cells were seeded into a black 96-well plate to be 3.0×10^3 cells/well and cultured for 24 hours. Next, BSO and DHMBA were added in an amount of 100 μL/well to have a final concentration of BSO of 100 μM and a final concentration of DHMBA of 250 μM and 500 μM. After 24 hours, a supernatant was removed, a DCFDA reagent (Sigma) diluted to 25 μM with serum-free DMEM was added in an amount of 100 μL/well, and the cells were cultured at 37° C. for 40 minutes. Furthermore, after the cells were washed with PBS, PBS was added in an amount of 100 μL/well, and fluorescence was measured using a plate reader (Wallac 1420 ARVO Mx plate reader) at an excitation wavelength of 485 nm and a fluorescence wavelength of 535 nm (n=6 for each group) and observed and photographed with a fluorescence microscope BZ-9000 (Keyence).
# [4] = tested on: intramitochondrial ROS in HK-2 cells; experiment: Intramitochondrial ROS production level (DHR123 staining); format: cell-based, human; conditions: 24 hours
# Method: In order to verify the effect of DHMBA on the production of intramitochondrial ROS promoted by oxidative stress stimulation, the observation and measurement of fluorescence intensity of intramitochondrial ROS were performed using DHR123.
# The HK-2 cells were seeded into a black 24-well plate to be 2.0×10^4 cells/well and cultured for 24 hours. Next, BSO and DHMBA were added in an amount of 500 μL/well to have a final concentration of BSO of 100 μM and a final concentration of DHMBA of 250 μM and 500 μM. After 24 hours, a supernatant was removed, a DHR123 reagent (FUJIFILM Wako Pure Chemical Corporation) diluted to 5 μM with serum-free DMEM was added in an amount of 250 μL/well, and the cells were cultured at 37° C. for 40 minutes.
# Furthermore, after the cells were washed with PBS, 500 μL of PBS was added, observation was performed, and photos were taken using a fluorescence microscope BZ-9000 (Keyence). Then, after the cells were peeled from the bottom with a scraper and pipetted sufficiently, an amount of 200 μL/well was moved to a black 96-well plate, and fluorescence was measured using a plate reader (Wallac 1420 ARVO Mx plate reader) at an excitation wavelength of 505 nm and a fluorescence wavelength of 534 nm (n=6 for each group).
# [5] = tested on: BIK and ENDOG genes in HK-2 cells; experiment: qPCR expression of cell and mitochondrial damage-related genes; format: cell-based, human; conditions: 24 hours
# Description: Under oxidative stress stimulation, ENDOG that resides in a mitochondrion migrates to the nucleus and acts on nuclear DNA fragmentation. In addition, when nuclear DNA is damaged, BIK increases and acts with intramitochondrial factors, inducing apoptosis, a type of cell death (Li L Y, et al., Nature, 412:95-99, 2001; Kutuk O, et al., PLOS One, 12: e0182809, 2017).
# Therefore, in the present invention, the effect of DHMBA on cell death markers BIK and ENDOG, which increase under oxidative stress stimulation, was verified.
# The HK-2 cells were seeded into a 6-well plate to be 5.0×10^4 cells/well and cultured for 24 hours. Next, BSO and DHMBA were added in an amount of 2 mL/well to have a final concentration of BSO of 100 μM and a final concentration of DHMBA of 250 μM and 500 μM. After 24 hours, total RNA extraction was recovered using a NucleoSpin (registered trademark) RNA kit (MACHEREY-NAGEL). The concentration of purified RNA was quantified by the Nanodrop (Invitrogen). From 1.0 μg of total RNA, cDNA was synthesized according to the protocol of ReverTra ACE (registered trademark) qPCR RT Master Mix with gDNA Remover (TOYOBO). The gene expression levels were measured according to the protocol of THUNDERBIRD (registered trademark) SYBR (registered trademark) qPCR Mix (TOYOBO). The measurement was performed using the CFX Connect™ Real-Time PCR Detection System (BioRad), and analysis was performed by the 2^−(ΔΔCT) method.
# A comparison was performed with the gene expression level of the control group as 1. The figure was expressed as a mean value±SD (n=4 for each group). Each expression level was corrected by the expression level of β-actin, which is a housekeeping gene.
# [6] = tested on: mitochondria of HK-2 cells; experiment: Mitochondrial morphology observation (MitoTracker Green FM / Hoechst 33342); format: cell-based, human; conditions: 24 hours
# Method: Excessively produced ROS induces mitochondrial fission, causing mitochondrial fragmentation and dysfunction (Zorov D, et al., Cells, 8:175, 2019). In order to observe whether or not DHMBA influences mitochondrial morphological changes under oxidative stress stimulation, double staining of mitochondria and nuclei was performed using MitoTracker (registered trademark) Green FM (Thermo Fisher Scientific), which reacts to mitochondrial membrane potential differences, and Hoechst 33342 (DOJINDO LABORATORIES), which binds to nuclear DNA.
# The HK-2 cells were seeded into 35 mm dishes to be 5.0×10^4 cells/dish and cultured for 24 hours. Next, BSO and DHMBA were added in an amount of 2 mL/well to have a final concentration of BSO of 100 μM and a final concentration of DHMBA of 250 μM and 500 μM. After 24 hours, a mixed solution of 0.1 μM MitoTracker (registered trademark) Green FM and 5 μg/mL Hoechst 33342 was added in an amount of 2 mL/dish, and the cells were cultured at 37° C. for 20 minutes and washed with PBS. Afterwards, 1 mL of PBS was added, and fluorescence images were obtained at 100 times using a fluorescence microscope BZ-9000 (Keyence).
# [7] = tested on: mitochondria of HK-2 cells; experiment: Mitochondrial respiration capacity (oxygen consumption rate, extracellular flux analyzer XFp); format: cell-based, human
# Method: The action of DHMBA improving mitochondrial respiration capacity under oxidative stress was examined using an extracellular flux analyzer XFp (Agilent Technologies).
# The HK-2 cells were seeded into the XFp Cell Culture Miniplate (Agilent Technologies) to be 1.5×10^4 cells/well and cultured for 24 hours. Next, BSO and DHMBA were added in an amount of 200 μL/well to have a final concentration of BSO of 100 μM and a final concentration of DHMBA of 250 μM and 500 μM. After 24 hours of culture, the culture medium was replaced with a running culture medium (XF DMEM Medium, pH 7.4, Agilent Technologies) containing 20 mM GlutaMAX (Gibco), 10 mM Pyruvate (Gibco), and glucose (10 mM), and the cells were cultured for one hour in an incubator at 37° C. without CO2 control. A 24-hour hydrated calibration plate was placed on an extracellular flux analyzer XFp and calibrated. After the calibration was completed, the calibration plate and the cell plate were exchanged, and the oxygen consumption rate (OCR) was measured. The basal respiration rate was measured first, and subsequently, oligomycin (final concentration: 2 μM) was added to inhibit ATP production. Next, FCCP (final concentration: 1 μM) was added, and the maximal respiration rate was measured. Finally, rotenon/antimycin A (final concentration: 0.25 μM) was added, and the respiration rate independent of mitochondria was measured. Each measurement was performed three times for all measurements.
# [8] = tested on: PPARα/PGC1α/NRF1/TFAM pathway genes in HK-2 cells; experiment: qPCR expression of mitochondrial biosynthesis-related genes; format: cell-based, human; conditions: co-treatment with 100 μM BSO, DHMBA 250 μM and 500 μM
# Method: It has been reported that mitochondrial biosynthesis is regulated through activation of the PPARα/PGC1α/NRF1/TFAM pathway (Uittenbogaard M and Chiaramello A, Current pharmaceutical design, 20:[…], 2014).
# (§5) The expression levels of genes related to mitochondrial biosynthesis were measured in a similar manner to that described above. A comparison was performed with the control group as 1. The figure was expressed as a mean value±SD (n=3 for each group). Each expression level was corrected by the expression level of β-actin.
# [9] = tested on: OPA1, DRP1 and FIS1 genes in HK-2 cells; experiment: qPCR expression of mitochondrial fusion- and fission-related genes; format: cell-based, human; conditions: co-treatment with 100 μM BSO, DHMBA 250 μM and 500 μM
# Method: as §5, with “fusion (OPA1) and genes related to fission (DRP1 and FIS1)” for “biosynthesis”, “(n=4” for “(n=3”
# Keap1-Nrf2 pathway = conditions: cited from earlier work
# [10] = 100 μM BSO alone (oxidative stress stimulation)
# [11] = co-treatment with 100 μM BSO, DHMBA 250 μM and 500 μM
# [12] = 100 μM BSO and 500 μM DHMBA, 24 hours, OCR
structure (smiles),measurement,setting,value
"CCCCS(=N)(=O)CCC(N)C(=O)O (centres unmarked) [BSO, buthionine sulfoximine, reference compound]",cytotoxicity,[1]; 100 μM BSO alone (0 μM DHMBA),strong cytotoxicity
same,cell viability,"[2]; 100 μM BSO alone (0 μM DHMBA), CCK-8",low cell viability
same,intracellular ROS,[3]; 100 μM BSO alone,increase in intracellular ROS
same,ROS accumulation in mitochondria,[4]; 100 μM BSO alone,ROS accumulation in mitochondria was also observed
same,expression level of BIK gene,[5]; [10],increased
same,expression level of ENDOG gene,[5]; [10],increased
same,mitochondrial fragmentation (morphology),[6]; [10],mitochondrial fragmentation was induced
same,damage to mitochondrial functions (OCR),"[7]; 100 μM BSO alone, 24-hour addition",not recognized
"COc1c(O)cc(CO)cc1O [DHMBA, 3,5-dihydroxy-4-methoxybenzyl alcohol]",DHMBA concentration that inhibited cytotoxicity,"[1]; co-treatment with 100 μM BSO, DHMBA 1 μM to 500 μM",≥ 3.9 µM
same,DHMBA concentration that increased cell viability,"[2]; co-treatment with 100 μM BSO, CCK-8, DHMBA 1 μM to 500 μM",≥ 3.9 µM
same,production level of intracellular ROS,[3]; [11],decreased to the same level as that of the control group
same,accumulation of intramitochondrial ROS,[4]; [11],inhibited
same,expression level of BIK gene,[5]; [11],decreased to the same levels as those of the control group
same,expression level of ENDOG gene,[5]; [11],decreased to the same levels as those of the control group
same,expression level of PGC1α,[8],increased
same,expression level of TEAM,[8],increased
same,mitochondrial fragmentation (morphology),[6]; [11],fragmented mitochondria decreased
same,expression level of FIS1,[9],reduced
same,mitochondrial ATP production,[7]; [12],increased
same,mitochondrial basal respiration,[7]; [12],increased
same,mitochondrial maximal respiration,[7]; [12],increased
same,cytotoxicity compared with existing antioxidant substances,"Keap1-Nrf2 pathway; earlier finding, background art",less cytotoxic than existing antioxidant substances
same,"activation of radical scavenging ability and the Keap1-Nrf2 pathway, expression induction of antioxidant gene clusters (such as HO-1 and NQO1)",Keap1-Nrf2 pathway; literature (Fuda 2015; Joko 2017),confirmed
